This is an account of results in US12059420B2 (BRISTOL-MYERS SQUIBB COMPANY, priority 2018, dated 2024).

As usually defined, the IC50 is the concentration that inhibits the measured activity by half.

Structures are written as SMILES. Where a name gives a salt, the structure may show the parent alone.

For this test, the target named is T1, human IDO1 (Homo sapiens, UniProt P14902).
T1 construct: expressed in transfected cells
Put plainly: IDO inhibition assay in HEK293 cells stably expressing human IDO1 (kynurenine production, Ehrlich reagent, absorbance 490 nm). It counts as cell-based. Particulars: 20 hours incubation with compound, 500 nM reference standard = 100% inhibition, read-out: IDO1 HEK Human IC50. As to the method:
HEK293 cells were transfected with a pCDNA-based mammalian expression vector harboring human IDO1 cDNA (NM 002164.2) by electroporation. They were cultured in medium (DMEM with 10% FBS) containing 1 mg/ml G418 for two weeks. Clones of HEK293 cells that stably expressed human IDO1 protein were selected and expanded for IDO inhibition assay.
The human IDO1/HEK293 cells were seeded at 10,000 cells per 50 μL per well with RPMI/phenol red free media contains 10% FBS in a 384-well black wall clear bottom tissue culture plate (Matrix Technologies LLC) 100 nL of certain concentration of compound was then added to each well using ECHO liquid handling systems. The cells were incubated for 20 hours in 37° C. incubator with 5% CO2.
The compound treatments were stopped by adding trichloroacetic acid (Sigma-Aldrich) to a final concentration at 0.2%. The cell plate was further incubated at 50° C. for 30 minute. The equal volume supernatant (20 μL) and 0.2% (w/v) Ehrlich reagent (4-dimethylaminobenzaldehyde, Sigma-Aldrich) in glacial acetic acid were mixed in a new clear bottom 384-well plate. This plate was then incubated at RT for 30 minute. The absorbance at 490 nm was measured on Envision plate reader.
Compound IC50 values were calculated using the counts of 500 nM of a reference standard treatment as one hundred percent inhibition, and counts of no compound but DMSO treatment as zero percent inhibition.

T1 sequence (P14902 whole entry): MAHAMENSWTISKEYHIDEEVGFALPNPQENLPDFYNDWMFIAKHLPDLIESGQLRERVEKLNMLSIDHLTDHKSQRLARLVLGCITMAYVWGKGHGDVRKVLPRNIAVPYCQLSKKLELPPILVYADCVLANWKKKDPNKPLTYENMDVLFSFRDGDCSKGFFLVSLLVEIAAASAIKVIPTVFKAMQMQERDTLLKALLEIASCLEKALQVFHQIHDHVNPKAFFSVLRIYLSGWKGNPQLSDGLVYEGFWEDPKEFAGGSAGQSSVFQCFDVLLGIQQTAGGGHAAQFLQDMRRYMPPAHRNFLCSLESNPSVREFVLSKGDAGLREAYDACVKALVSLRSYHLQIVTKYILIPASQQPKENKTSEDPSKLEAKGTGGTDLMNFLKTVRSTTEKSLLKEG

`CCCN(Cc1ccccc1)c1cc(NC(=O)Cc2ccc(C)cc2)cc(-c2ccccc2C(=O)NS(=O)(=O)N2CCN(C)CC2)n1` [Example 25, 2-(6-(benzyl(propyl)amino)-4-(2-(p-tolyl)acetamido)pyridin-2-yl)-N-((4-methylpiperazin-1-yl)sulfonyl)benzamide]: the IC50 amounted to 2910 nM.
Then `CCCN(Cc1ccccc1)c1cc(NC(=O)Nc2ccc(C)cc2)cc(-c2cc(C)ccc2-c2noc(=O)[nH]2)n1` [Example 26, 1-(2-(benzyl(propyl)amino)-6-(5-methyl-2-(5-oxo-4,5-dihydro-1,2,4-oxadiazol-3-yl)phenyl)pyridin-4-yl)-3-(p-tolyl)urea], with 11.8 nM; and `CCCN(Cc1ccccc1)c1cc(NC(=O)Nc2ccc(C)cc2)cc(-c2ccccc2S(N)(=O)=O)n1` [Example 27, 2-(6-(benzyl (propyl)amino)-4-(3-(p-tolyl)ureido)pyridin-2-yl) benzene sulfonamide], with 607 nM.
Under `CCCN(Cc1ccccc1)c1cc(NC(=O)Cc2ccc(C)cc2)cc(-c2ccccc2-c2nc(=O)o[nH]2)n1` [Example 28, N-(2-(benzyl (propyl)amino)-6-(2-(5-oxo-2,5-dihydro-1,2,4-oxadiazol-3-yl)phenyl)pyridin-4-yl)-2-(p-tolyl)acetamide] stands 80.1 nM.
Then `CCCN(Cc1ccccc1)c1cc(NC(=O)Cc2ccc(C)cc2)cc(-c2ccccc2C(N)=O)n1` [Example 29], with 616 nM.
Turning to `CCCN(Cc1ccccc1)c1cc(NC(=O)Nc2ccc(C)cc2)cc(-c2ccccc2-c2nc(=O)o[nH]2)n1` [Example 31, 1-(2-(benzyl (propyl)amino)-6-(2-(5-oxo-4,5-dihydro-1,2,4-oxadiazol-3-yl)phenyl)pyridin-4-yl)-3-(p-tolyl) urea], the concentration for half-maximal inhibition (IC50) came out at 13.9 nM.
Under `CCCN(Cc1ccccc1)c1cc(NC(=O)Nc2ccc(C)cc2)cc(-c2ccccc2S(=O)(=O)NC(=O)c2ccccc2)n1` [Example 32, N-((2-(6-(benzyl (propyl)amino)-4-(3-(p-tolyl)ureido)pyridin-2-yl)phenyl)sulfonyl) benzamide] stands 4100 nM; under `CCCN(Cc1ccccc1)c1cc(NC(=O)Cc2ccc(C)cc2)cc(-c2ccccc2S(N)(=O)=O)n1` [Example 33, N-(2-(benzyl (propyl)amino)-6-(2-sulfamoylphenyl)pyridin-4-yl)-2-(p-tolyl) acetamide], 508 nM.
Under `CCCN(Cc1ccccc1)c1cc(NC(=O)Cc2ccc(C)cc2)cc(-c2ccccc2S(=O)(=O)NC(C)=O)n1` [Example 34, N-(2-(2-(N-acetylsulfamoyl)phenyl)-6-(benzyl(propyl)amino)pyridin-4-yl)-2-(p-tolyl) acetamide] stands 237 nM.
Under `CCCN(Cc1ccccc1)c1cc(NC(=O)Nc2ccc(C)cc2)cc(-c2ccccc2S(=O)(=O)NC(C)=O)n1` [Example 35, N-((2-(6-(benzyl (propyl)amino)-4-(3-(p-tolyl)ureido)pyridin-2-yl)phenyl)sulfonyl) acetamide] stands 256 nM; under `CCCN(Cc1ccccc1)c1cc(NC(=O)Nc2ccccc2C(F)(F)F)cc(-c2ccccc2-c2nnn[nH]2)n1` [Example 36, 1-(2-(2-(1H-tetrazol-5-yl)phenyl)-6-(benzyl(propyl)amino)pyridin-4-yl)-3-(2-(trifluoromethyl)phenyl)urea], 205 nM; under `CCCN(Cc1ccccc1)c1cc(NC(=O)Nc2ccc(C)nn2)cc(-c2ccccc2-c2nnn[nH]2)n1` [Example 37, 1-(2-(2-(1H-tetrazol-5-yl)phenyl)-6-(benzyl(propyl)amino)pyridin-4-yl)-3-(6-methyl-pyridazin-3-yl) urea], 3140 nM.
As for `CCCN(Cc1ccccc1)c1cc(NC(=O)Nc2ccc(C)cc2)cc(-c2ccccc2C(N)=O)n1` [Example 38, 2-(6-(benzyl (propyl)amino)-4-(3-(p-tolyl)ureido)pyridin-2-yl) benzamide], the IC50 was found to be 302 nM.
Then `CC(C)CN(Cc1ccc(F)cc1)c1cc(Nc2ccc(F)cc2)cc(-c2ccccc2-c2nnn[nH]2)n1` [Example 39, 6-(2-(1H-tetrazol-5-yl)phenyl)-N2-(4-fluorobenzyl)-N4-(4-fluorophenyl)-N2-isobutylpyridine-2,4-diamine], with 2.4 nM; and `Cc1cnc(Nc2cc(-c3ccccc3-c3nnn[nH]3)nc(N(Cc3ccc(F)cc3)CC(C)C)c2)nc1` [Example 40, 6-(2-(1H-tetrazol-5-yl)phenyl)-N2-(4-fluorobenzyl)-N2-isobutyl-N4-(5-methylpyrimidin-2-yl)pyridine-2,4-diamine, TFA], with 33.1 nM.
Under `Cc1ccc(Nc2cc(-c3ccccc3-c3nnn[nH]3)nc(N(Cc3ccc(F)cc3)CC(C)C)c2)nn1` [Example 41, 6-(2-(1H-tetrazol-5-yl)phenyl)-N2-(4-fluorobenzyl)-N2-isobutyl-N4-(6-methylpyridazin-3-yl)pyridine-2,4-diamine, TFA] stands 563 nM; under `CC(C)CN(Cc1ccc(F)cc1)c1cc(Nc2ccn3nccc3n2)cc(-c2ccccc2-c2nnn[nH]2)n1` [Example 42, 6-(2-(1H-tetrazol-5-yl)phenyl)-N2-(4-fluorobenzyl)-N2-isobutyl-N4-(pyrazolo[1,5-a]pyrimidin-5-yl)pyridine-2,4-diamine, TFA], 120 nM.
As for `CC(C)CN(Cc1ccc(F)cc1)c1cc(Nc2nc3ccccc3s2)cc(-c2ccccc2-c2nnn[nH]2)n1` [Example 43, 6-(2-(1H-tetrazol-5-yl)phenyl)-N4-(benzo[d]thiazol-2-yl)-N2-(4-fluorobenzyl)-N2-isobutylpyridine-2,4-diamine, TFA], the half-maximal inhibitory concentration (IC50) was 31.2 nM.
Under `CC(C)CN(Cc1ccc(F)cc1)c1cc(Nc2ncc(F)cn2)cc(-c2ccccc2-c2nnn[nH]2)n1` [Example 44, 6-(2-(1H-tetrazol-5-yl)phenyl)-N2-(4-fluorobenzyl)-N4-(5-fluoropyrimidin-2-yl)-N2-isobutylpyridine-2,4-diamine, TFA] stands 35.7 nM; under `Cc1ncccc1Nc1cc(-c2ccccc2-c2nnn[nH]2)nc(N(Cc2ccc(F)cc2)CC(C)C)c1` [Example 45, 6-(2-(1H-tetrazol-5-yl)phenyl)-N2-(4-fluorobenzyl)-N2-isobutyl-N4-(2-methylpyridin-3-yl)pyridine-2,4-diamine, TFA], 239 nM; under `CC(C)CN(Cc1ccc(F)cc1)c1cc(Nc2ccc3c(c2)OCO3)cc(-c2ccccc2-c2nnn[nH]2)n1` [Example 46, 6-(2-(1H-tetrazol-5-yl)phenyl)-N4-(benzo[d][1,3]dioxol-5-yl)-N2-(4-fluorobenzyl)-N2-isobutylpyridine-2,4-diamine], 1.1 nM.
Regarding `CC(C)CN(Cc1ccc(F)cc1)c1cc(Nc2cccc(C(F)F)n2)cc(-c2ccccc2-c2nnn[nH]2)n1` [Example 47, 6-(2-(1H-tetrazol-5-y1)phenyl)-N4-(6-(difluoromethyl)pyridin-2-yl)-N2-(4-fluorobenzyl)-N2-isobutylpyridine-2,4-diamine], the IC50 turned out to be 17.2 nM.
Under `CC(C)CN(Cc1ccc(F)cc1)c1cc(Nc2ccc(F)cn2)cc(-c2ccccc2-c2nnn[nH]2)n1` [Example 48, 6-(2-(1H-tetrazol-5-yl)phenyl)-N2-(4-fluorobenzyl)-N4-(5-fluoropyridin-2-yl)-N2-isobutylpyridine-2,4-diamine] stands 10.7 nM.
Then `Cc1cnc(Nc2cc(-c3ccccc3-c3nnn[nH]3)nc(N(Cc3ccccc3)CC(C)C)c2)cn1` [Example 49, 6-(2-(1H-tetrazol-5-yl)phenyl)-N2-benzyl-N2-isobutyl-N4-(5-methylpyrazin-2-yl)pyridine-2,4-diamine, TFA], with 31.6 nM; and `CC(C)CN(Cc1ccccc1)c1cc(Nc2ccn3nccc3n2)cc(-c2ccccc2-c2nnn[nH]2)n1` [Example 50, 6-(2-(1H-tetrazol-5-y1)phenyl)-N2-benzyl-N2-isobutyl-N4-(pyrazolo[1,5-a]pyrimidin-5-yl)pyridine-2,4-diamine], with 131 nM; and `Cc1cnc(Nc2cc(-c3ccccc3-c3nnn[nH]3)nc(N(Cc3ccccc3)CC(C)C)c2)nc1` [Example 51, 6-(2-(1H-tetrazol-5-yl)phenyl)-N2-benzyl-N2-isobutyl-N4-(5-methylpyrimidin-2-yl)pyridine-2,4-diamine], with 60.3 nM.
As for `CC(C)CN(Cc1ccccc1)c1cc(Nc2nnc(-c3ccccc3)s2)cc(-c2ccccc2-c2nnn[nH]2)n1` [Example 52, 6-(2-(1H-tetrazol-5-yl)phenyl)-N2-benzyl-N2-isobutyl-N4-(5-phenyl-1,3,4-thiadiazol-2-yl)pyridine-2,4-diamine], the IC50 is 191 nM.
`CC(C)CN(Cc1ccccc1)c1cc(Nc2nccc(N3CCOCC3)n2)cc(-c2ccccc2-c2nnn[nH]2)n1` [Example 53, 6-(2-(1H-tetrazol-5-yl)phenyl)-N2-benzyl-N2-isobutyl-N4-(4-morpholinopyrimidin-2-yl)pyridine-2,4-diamine, TFA]: the IC50 is 4.9 nM.
Then `CC(C)CN(Cc1ccccc1)c1cc(Nc2ncc(F)cn2)cc(-c2ccccc2-c2nnn[nH]2)n1` [Example 55, 6-(2-(1H-tetrazol-5-yl)phenyl)-N2-benzyl-N4-(5-fluoropyrimidin-2-yl)-N2-isobutylpyridine-2,4-diamine, 1.5 TFA], with 11.5 nM.
